From US9492462B2, “Composition for elastin production” (HUMAN MATRIX SCIENCES, LLC, priority 2007, dated 2016) come the findings set out here.

What all share (assay type): cell-based, human
For experiment [1], the system named is fibroblasts derived from patient with stretch marks. The experiment is described as follows: Elastin immunostaining in 7-day cultures of fibroblasts from a patient with stretch marks. The conditions noted are these: 50 nM aldosterone alone or with 2 μM spironolactone; vs untreated control or spironolactone only. The protocol:
Biological effects of aldosterone and spironolactone were tested in cultures of dermal fibroblasts derived from normal skin, stretch-marked skin and dermal scars derived from Caucasian females, of different ages ranging from 30-38 years old. All fibroblasts were originally isolated by allowing them to migrate out of skin explants and then passaged by trypsinization and maintained in alpha-minimum essential medium supplemented with 20 mM Hepes, 1% antibiotics and antimycotics, 1% L-Glutamate and 2% fetal bovine serum (FBS) as previously described Hinek et al. “Impaired elastic-fiber assembly by fibroblasts from patients with either Morquio B disease or infantile GM1-gangliosidosis is linked to deficiency in the 67-kD spliced variant of beta-galactosidase.” Am J Hum Genet. 2000 July; 67(1):23-36 hereby incorporated by reference in its entirety. In all experiments, consecutive passages 3-4 were tested. Cells were densely plated (50×10^5 cells/dish) to reach confluency and then cultured for 7 days in the presence and absence of different concentrations of (10 nM-1 μM) aldosterone, 2 μM spironolactone, alone or in combinations with other reagents, as described in figure legends. 7-day-old cultures of fibroblasts, which produce abundant ECM, were assessed. […]

Experiment [2] deals with fibroblasts derived from dermal scar tissue. The experiment is described as follows: Elastin immunostaining in 7-day cultures of dermal scar fibroblasts. The settings on record: 50 nM aldosterone alone or with 2 μM spironolactone; vs untreated control or spironolactone only. As to the method:
Biological effects of aldosterone and spironolactone were tested in cultures of dermal fibroblasts derived from normal skin, stretch-marked skin and dermal scars derived from Caucasian females, of different ages ranging from 30-38 years old. All fibroblasts were originally isolated by allowing them to migrate out of skin explants and then passaged by trypsinization and maintained in alpha-minimum essential medium supplemented with 20 mM Hepes, 1% antibiotics and antimycotics, 1% L-Glutamate and 2% fetal bovine serum (FBS) as previously described Hinek et al. “Impaired elastic-fiber assembly by fibroblasts from patients with either Morquio B disease or infantile GM1-gangliosidosis is linked to deficiency in the 67-kD spliced variant of beta-galactosidase.” Am J Hum Genet. 2000 July; 67(1):23-36 hereby incorporated by reference in its entirety. In all experiments, consecutive passages 3-4 were tested. Cells were densely plated (50×10^5 cells/dish) to reach confluency and then cultured for 7 days in the presence and absence of different concentrations of (10 nM-1 μM) aldosterone, 2 μM spironolactone, alone or in combinations with other reagents, as described in figure legends.
7-day-old cultures of fibroblasts, which produce abundant ECM, were assessed. All cultures were fixed in cold 100% methanol at −20° C. for 30 min, and then incubated for 1 hour with 2 μg/ml of polyclonal antibody to tropoelastin. Cultures were then incubated for an additional hour with appropriate fluorescein-conjugated secondary antibody (GAR-FITC). Nuclei were counterstained with propidium iodide. Morphometric analysis of five separate cultures in each experimental group, immunostained with antibodies recognizing extracellular matrix components, was performed using a computerized video analysis system (Image-Pro Plus software 3.0, Media Cybernetics, Silver Spring, Md.) as described previously in Hinek et al. “Decreased elastin deposition and high proliferation of fibroblasts from Costello syndrome are related to functional deficiency in the 67-kD elastin-binding protein.” Am J Hum Genet. […]

The test system is the same in experiment [3]. The experiment is described as follows: [3H]-valine incorporation into insoluble elastin, dermal scar fibroblasts. The conditions noted are these: 50 nM aldosterone alone or with 2 μM spironolactone. As to the method:
Biological effects of aldosterone and spironolactone were tested in cultures of dermal fibroblasts derived from normal skin, stretch-marked skin and dermal scars derived from Caucasian females, of different ages ranging from 30-38 years old. All fibroblasts were originally isolated by allowing them to migrate out of skin explants and then passaged by trypsinization and maintained in alpha-minimum essential medium supplemented with 20 mM Hepes, 1% antibiotics and antimycotics, 1% L-Glutamate and 2% fetal bovine serum (FBS) as previously described Hinek et al. “Impaired elastic-fiber assembly by fibroblasts from patients with either Morquio B disease or infantile GM1-gangliosidosis is linked to deficiency in the 67-kD spliced variant of beta-galactosidase.” Am J Hum Genet. 2000 July; 67(1):23-36 hereby incorporated by reference in its entirety. […]
Quintuplicate, 4 day-old cultures of dermal fibroblasts maintained in the presence and absence of indicated reagents were additionally exposed for the 3 following days to 20 μCi [^3H]-valine. […] The resulting pellets containing the insoluble elastin were then solubilized by boiling in 200 μl of 5.7 N HCl for 1 hour, and the aliquots were mixed in scintillation fluid and counted. […] Final results reflecting amounts of metabolically labeled insoluble elastin in individual cultures were normalized per their DNA content, and expressed as CPM/1 μg DNA.

As for `C[C@]12CCC(=O)C=C1CC[C@@H]1[C@@H]2[C@@H](O)C[C@]2(C=O)[C@@H](C(=O)CO)CC[C@@H]12` [aldosterone], the “elastin stained by anti-elastin antibodies” value in experiment [1] and in experiment [2] was “increase in elastin” in each case. Besides, in experiment [3], the “deposition of insoluble mature elastin ([3H]-valine incorporation)” value was “enhanced”.
